Results reported in PubChem BioAssay (NCI).
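Where inhibition never reached the appropriate level, the endpoint shown equals the highest concentration tested. Otherwise, values were interpolated linearly from a five-concentration, 48-hour dose response in 96-well plates. GI50 marks 50% less growth. TGI: concentration producing complete growth inhibition.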

Assays:
Test in all cases: DTP human tumour cell line panel, 48 h
HT29 colon = tested on: HT29 colon
MALME-3M melanoma = tested on: MALME-3M melanoma
K-562 leukemia = tested on: K-562 leukemia
LOX IMVI melanoma = tested on: LOX IMVI melanoma
SF-295 CNS = tested on: SF-295 CNS
A498 renal = tested on: A498 renal
HL-60(TB) leukemia = tested on: HL-60(TB) leukemia
PC-3 prostate = tested on: PC-3 prostate
MDA-MB-231 breast = tested on: MDA-MB-231 breast
BT-549 breast = tested on: BT-549 breast

Row | SMILES | TGI (HT29 colon) [µM] | TGI (MALME-3M melanoma) [µM] | TGI (K-562 leukemia) [µM] | TGI (LOX IMVI melanoma) [µM] | TGI (SF-295 CNS) [µM] | TGI (A498 renal) [µM] | TGI (HL-60(TB) leukemia) [µM] | GI50 (PC-3 prostate) [µM] | TGI (PC-3 prostate) [µM] | GI50 (HT29 colon) [µM] | GI50 (MALME-3M melanoma) [µM] | GI50 (K-562 leukemia) [µM] | GI50 (LOX IMVI melanoma) [µM] | GI50 (SF-295 CNS) [µM] | GI50 (MDA-MB-231 breast) [µM] | TGI (MDA-MB-231 breast) [µM] | GI50 (A498 renal) [µM] | GI50 (HL-60(TB) leukemia) [µM] | GI50 (BT-549 breast) [µM] | TGI (BT-549 breast) [µM]
1 | N#CC1(N2CCCC2)CCC2(CC1)OCCO2 | > 100 | > 100 | > 100 | > 100 | > 100 | > 100 | > 100 |  |  |  |  |  |  |  |  |  |  |  |  | 
2 | COc1cc2c(/C=C3/C(=O)Nc4ccc(O)cc43)c(Cl)n(Cc3cc(OC)c(OC)c(OC)c3)c2cc1C | > 55.9 | 3.91 | > 31.6 | 16.3 | 5.67 | > 30.2 | 10.3 | 1.56 | > 83.6 | 1.71 | 0.494 | 2.17 | 2.05 | 0.795 | 4.75 | > 100 | 3.09 | 1.97 |  | 
3 | CC(=O)OC1=C2CC[C@@H]3C(CC[C@@]4(C)C3CC[C@@H]4OC(C)=O)[C@@]2(C)CC(C#N)C1=O (stereo not given in full) | > 100 | > 100 | 88.1 | > 100 | > 100 | 9.59 | 42.6 |  |  |  |  |  |  |  |  |  |  |  |  | 
4 | Brc1ccc(C=NC23CC4CC(CC(C4)C2)C3)cc1 | > 100 | > 100 | > 100 | > 100 | > 100 | > 100 | > 100 |  |  |  |  |  |  |  |  |  |  |  |  | 
5 | CO/C=C(\Br)c1ccc2c(c1)OCO2 |  | > 100 | > 100 |  | > 100 | > 100 | > 100 |  |  |  |  |  |  |  |  |  |  |  |  | 
6 | OCCN(CCO)c1nc(N2CCCCC2)c2nc(N(CCO)CCO)nc(N3CCCCC3)c2n1 | 40 | 46 | > 100 | > 100 |  |  | 36.5 |  | > 100 |  |  |  |  |  |  | > 100 |  |  |  | 
7 | O=[N+]([O-])c1ccc(N=Nc2c(Cl)cc(O)cc2Cl)cc1 | 12.6 |  | > 100 | 10.6 | 3.06 | 4.6 | 2.86 | 2.72 | 15.4 | 3.7 |  | 0.605 | 1.73 | 1.56 | 0.7 | 4.86 | 1.73 | 0.382 | 1.67 | 6.41
8 | O=C(CCCC(=O)N/N=C/c1cc(Cl)ccc1O)N/N=C\c1cc(Cl)ccc1O | > 100 |  | > 100 | 25.4 | > 100 | > 100 | 8.28 | 2.68 | > 100 | 21.2 |  | 2.88 | 1.69 | 3.74 | 2.63 | 91.6 | 55 | 2.48 | 7.34 | > 100
9 | COc1ccc2c(c1)C(=O)c1c-2c(N2CCN(C(=O)CCNCCNCCN)CC2)nc2ccccc12 | 4.88 | 6.9 | 9.63 |  | 44.7 | 33.7 | 6.83 | 10.3 | 25.9 | 2.43 | 2.78 | 3.33 |  | 20.8 | 7.25 | 27.5 | 16.9 | 3.03 |  | 
10 | C[N+](C)(C)C1CC([N+](C)(C)C)C2c3ccccc3C21 (stereo not given) | > 100 | > 100 | > 100 | > 100 | > 100 | > 100 | > 100 |  |  |  |  |  |  |  |  |  |  |  |  | 
11 | CCOC(=O)CNC(=O)OCc1ccccc1 | > 100 | > 100 | > 100 | > 100 | > 100 | > 100 | > 100 |  |  |  |  |  |  |  |  |  |  |  |  | 
12 | [Co].[O-]c1cccnc1C=Nc1ccccc1.[OH3+] | > 100 | > 100 | > 100 | > 100 |  | > 100 | > 100 |  |  | > 100 | > 100 | 45.8 | > 100 |  |  |  | > 100 | 21.8 |  | 
13 | O=C(Nc1cccc(C(F)(F)F)c1)c1ccc(NC2=C(Cl)C(=O)N(Cc3ccccc3)C2=O)cc1 | 52 |  | 12.5 | 6.6 | 23.6 | 45.7 | 5.64 | 14 | 27 | 13.6 |  | 1.46 | 2.45 | 10.1 | 6.53 | 23.9 | 24.4 | 2.08 | 1.25 | 5.49
14 | O=S1(=O)c2cc(S(=O)(=O)n3ccnc3)ccc2NC2=NCCCN21 | 46.3 | > 100 | > 100 | > 100 | > 100 | 62.3 | 36.4 |  |  |  |  |  |  |  |  |  |  |  |  | 
15 | C=CCOc1ccc(N)c([N+](=O)[O-])c1 | > 100 | > 100 | > 100 | > 100 | > 100 | > 100 | > 100 |  | > 100 |  |  |  |  |  |  |  |  |  |  | > 100
16 | Cc1ccc(/C=N/NS(=O)(=O)c2ccccc2)cc1C | > 100 | > 100 | > 100 | > 100 | > 100 | > 100 | > 100 |  |  |  |  |  |  |  |  |  |  |  |  | 
17 | Cc1[nH]c2ccccc2c1C1=NO/C(=N\O)C(c2c(C)[nH]c3ccccc23)C1 (stereo not given) | 58.9 | > 100 | > 100 |  | > 100 | > 100 | 54 |  |  |  |  |  |  |  |  |  |  |  |  | 
18 | COc1ccc(CNCCCN2C(=O)c3ccc4c5c(ccc(c35)C2=O)C(=O)N(CCCNCc2ccc(OC)c(OC)c2OC)C4=O)c(OC)c1OC | 0.244 | 0.151 | 0.515 | 0.155 | 0.331 | 1.25 |  | 0.109 | 0.293 | 0.0522 | 0.0765 | 0.168 | 0.0795 | 0.119 | 0.125 | 0.398 | 0.61 |  | 0.262 | 0.503
19 | CN(C)CCN(C)C(=O)c1cccc2cccc(C(=O)O)c12 | > 100 | > 100 | > 100 | > 100 | > 100 | > 100 | > 100 |  |  |  |  |  |  |  |  |  |  |  |  | 
20 | COc1ccc(C[C@]23CCC(=O)N2CCc2cc(OC)c(O)cc23)cc1O | > 100 | > 100 | > 100 | > 100 | > 100 | > 100 | > 100 |  |  |  |  |  |  |  |  |  |  |  |  | 
21 | C/C(=C\C(C[C@](C)(O)C(O)CCC#C[Si](C)(C)C)S(=O)(=O)c1ccccc1)CC/C=C/CO[Si](C)(C)C(C)(C)C (stereo not given in full) | 12.7 | 40.4 | 29 | 28.7 | 31.1 | 31.9 | 33.2 |  |  |  |  |  |  |  |  |  |  |  |  | 
